Drawing on patent US8889708B2 (Boehringer Ingelheim International GmbH, priority 2013, dated 2014), this text covers IC50 and half-life for nine compounds.

The subject of data set [1] is Neutrophil elastase activity in U937 cells. Briefly: Neutrophil elastase activity in U937 cytosolic lysate after incubation with test compound. The note with it: Homo sapiens, U-937, U937 cells incubated 48 hours with compound, read-out: Reduction of NE-activity in U937 cells IC50. The format is cell-based. As for the experimental part:
Determination of Neutrophil Elastase Activity in U937 Cytosolic Lysate Preparation after Incubation with Test Compound
Optiplate 384F were purchased from PerkinElmer (Prod. No. #6007270). 24well Nunclon cell culture plates (No. 142475) and 96well plates (No. 267245) were from Nunc. Dimethylsulfoxid (DMSO) was from Sigma (Prod. No. D8418). Nonidet-P40 (NP40) was from USBiological (Prod. No. N3500)
Substrate, specific for Neutrophil elastase, was from Bachem (MeOSuc-Ala-Ala-Pro-Val-AMC; Prod. No. I-1270).
Human neutrophil elastase was from Calbiochem (Prod. No. 324681)
Tris-buffer (100 mM Tris; 1M NaCL; pH 7.5)
Tris-buffer+HSA 0.1%; Human Serum Albumin from Calbiochem (Cat#. 126658)
Serine-protease buffer (20 mM Tris; 100 mM NaCL; pH 7.5)+0.1% HSA
Serine protease lysis buffer: 20 mM Tris-HCL; 100 mM NaCl pH 7.5; +0.2% Nonidet-P40;
PBS: phosphate buffered saline, without Ca and Mg, from Gibco
U937 from ECACC (Cat. No. 85011440) cultured in suspension at 37° C. and 5% CO2.
Cell density: 0.2-1 Mio. Cells/ml.
Medium: RPMI1640 GlutaMAX (No. 61870) with 10% FCS from Gibco
Cell Seeding and Treatment:
Compounds in 100% DMSO were diluted in Medium (—FCS) with 10% DMSO and further diluted according to the experiment planned.
20 μl of the compound solution was transferred in the respective wells of the 24 well plate and diluted with 2 ml cell suspension/well containing […] (final concentration of DMSO=0.1%). Compound dilution factor=100
Compounds (up to 7 concentrations) were tested in triplicates with 3 wells for the DMSO 0.1% control, incubatet for 48 hours without medium change at 37° C., 5% CO2 and 95% relative humidity.
Cell Harvesting and Cell Lysate:
Transfer the cell suspension in 2.2 ml Eppendorf cups. Separate cells from medium by centrifugation (400×g; 5 min; RT); discard the supernatant. Resuspend in 1 ml PBS; centrifugation (400×g; 5 min; RT); wash cells twice with PBS. Add 100 μl Serin lysis buffer (ice cold) to the cell pellet; resuspend the pellet and store on ice for 15 minutes. Remove debris by centrifugation at 15000×g for 10 min at 4° C. Transfer 80-100 μl lysate supernatant in 96well plate and store immediately at −80° C.
Neutrophil Elastase Activity Assay:
Frozen lysates were thawn at 37° C. for 10 minutes and stored on ice. Protein content was determined with Bradford protein assay. Lysates were diluted to 0.2-0.5 mg/ml protein in serine protease buffer+HSA.
Standard: NE ([…] stocksolution in Tris-buffer; stored at −80° C.) was diluted in Tris-buffer+HSA to 750 ng/ml, and further serially diluted 1:2 for the standard curve.
Buffer, blank, standard and lysate samples were transferred into 384 well plate
Blank: 5 μl Tris-buffer+10 μl Tris-buffer+HSA+5 μl Substrate
Standard: 5 μl Tris-buffer+10 μl NE (diff.conc.)+5 μl Substrate
Lysate: 5 μl Tris-buffer+10 μl Lysat+5 μl Substrate
The increase in fluorescence (Ex360 nm/Em 460 nm) is determined over 30 minutes with a Molecular Device Spectramax M5 Fluorescence Reader. Kinetic Reduction (Vmax units/sec); 4 vmax points. The amount of neutrophil elastase (ng/ml) is calculated using the standard curve and the Spectramax software. The result is interpolated to ng/mg lysate protein using excel formula functions. Percent inhibition in the compound-treated lysate samples is calculated relative to the DMSO-treated control-sample (100−(compound-sample*100)/control-sample)
IC50 is calculated using Graphpad Prism; nonlinear fitting (log(inhibitor) vs. response—Variable slope).

Data set [2] in a line: Metabolic stability with human liver microsomes. The format is in vitro ADME. The note with it: pH 7.6; pooled human liver microsomes, 37° C., 1 μM test compound, 1 mg/ml protein, NADPH; read-out: In vitro stability in human liver microsome incubations t½. As for the experimental part: Determination of Metabolic Stability with Human Liver Microsomes
The metabolic degradation of the test compound is assayed at 37° C. with pooled human liver microsomes. The final incubation volume of 100 μl per time point contains TRIS buffer pH 7.6 (0.1 M), magnesium chloride (5 mM), microsomal protein (1 mg/ml) and the test compound at a final concentration of 1 μM. Following a short preincubation period at 37° C., the reactions are initiated by addition of beta-nicotinamide adenine dinucleotide phosphate, reduced form (NADPH, 1 mM) and terminated by transferring an aliquot into acetonitrile after different time points. Additionally, the NADPH-independent degradation is monitored in incubations without NADPH, terminated at the last time point. The [%] remaining test compound after NADPH independent incubation is reflected by the parameter c(control) (metabolic stability). The quenched incubations are pelleted by centrifugation (10,000 g, 5 min). An aliquot of the supernatant is assayed by LC-MS/MS for the amount of parent compound.
The half-life (t½ INVITRO) is determined by the slope of the semilogarithmic plot of the concentration-time profile. The intrinsic clearance (CL_[…]) is calculated by considering the amount of protein in the incubation: CL_[…][μl/min/mg protein]=(ln 2/(half-life[min]*protein content[mg/ml]))*1,000.
For orientation: Liver microsomes are a subcellular fraction often used to study metabolism.

Structures are written as SMILES. pIC50: −log10 of the molar value.

For orientation: pIC50 means the IC50 on a negative log10 scale, so that one unit is a factor of ten. For the compound `N#C[C@H](Cc1ccc(-c2ccc3c(c2)CCNC3=O)cc1F)NC(=O)C12CCC(CC1)CN2` [Example 22], the pIC50 in data set [1] was 8.15. Moreover, the half-life at 1 μM in data set [2] was above 130 min.

With `CC1(C)OC(=O)c2ccc(-c3ccc(C[C@@H](C#N)NC(=O)C45CCC(CC4)CN5)c(F)c3)cc21` [Example 27], the pIC50 in data set [1] was 8.15. For the same compound, the half-life at 1 μM in data set [2] is above 130 min.

Regarding `CN1C(=O)Cc2ccc(-c3ccc(C[C@@H](C#N)NC(=O)C45CCC(CC4)CN5)c(F)c3)cc21` [Example 28], the pIC50 in data set [1] was 7.89. Besides, in data set [2], the half-life at 1 μM is above 130 min.

Regarding `COCCN1C(=O)Cc2ccc(-c3ccc(C[C@@H](C#N)NC(=O)C45CCC(CC4)CN5)c(F)c3)cc21` [Example 26], the negative logarithm of the IC50 (pIC50) in data set [1] is 7.89. For the same compound, in data set [2], the half-life at 1 μM was above 130 min.

As for `CS(=O)(=O)c1ccc(-c2ccc(C[C@@H](C#N)NC(=O)C34CCC(CC3)CN4)c(F)c2)cc1` [Example 21, N-[(1S)-1-cyano-2-[2-fluoro-4-(4-methanesulfonylphenyl)phenyl]ethyl]-2-azabicyclo[2.2.2]octane-1-carboxamide], in data set [1], the pIC50 is 7.32. The half-life at 1 μM in data set [2] is above 130 min.

On to `N#C[C@H](Cc1ccc(-c2csc(C(N)=O)c2)cc1F)NC(=O)C12CCC(CC1)CN2` [Example 31], for which, in data set [1], the pIC50 is 7.14. Besides, in data set [2], the half-life at 1 μM is above 130 min.

In the case of `N#C[C@H](Cc1ccc(-c2ccc3c(c2)NC(=O)C3)cc1F)NC(=O)C12CCC(CC1)CN2` [Example 23], the pIC50 in data set [1] was 7.48. Besides, the half-life at 1 μM in data set [2] was above 130 min.

Take `CN1Cc2cc(-c3ccc(C[C@@H](C#N)NC(=O)C45CCC(CC4)CN5)cc3)ccc2C1=O` [Example 4]: the pIC50 in data set [1] was 7.07. Moreover, the half-life at 1 μM in data set [2] was above 130 min.

Turning to `CN1C(=O)Cc2ccc(-c3ccc(C[C@@H](C#N)NC(=O)C45CCC(CC4)CN5)cc3)cc21` [Example 2], the negative logarithm of the IC50 (pIC50) in data set [1] is 7.57. Also, in data set [2], the half-life at 1 μM was above 130 min.
